In patent publication US20260132132A1, “3A,4,5,6-TETRAHYDRO-1 H-PYRAZOLO[3,4-C]PYRIDIN-7(7AH)-ONE DERIVATIVES AS FACTOR XIIA INHIBITORS” (KALVISTA PHARMACEUTICALS LIMITED, priority 2022, published 2026):

Key:
[1] = target: T1, Human Factor XIIa (hFXIIa) (Homo sapiens, UniProt P00748); test: Determination of Human Factor XIIa (hFXIIa) inhibition, fluorogenic substrate IC50 assay; format: biochemical; details: fluorogenic substrate H-DPro-Phe-Arg-AFC at Km, 25° C., read-out: Human FXIIa IC50
T1 construct: purchased Enzyme Research Laboratories
T1 sequence (P00748 373-615 limits assumed): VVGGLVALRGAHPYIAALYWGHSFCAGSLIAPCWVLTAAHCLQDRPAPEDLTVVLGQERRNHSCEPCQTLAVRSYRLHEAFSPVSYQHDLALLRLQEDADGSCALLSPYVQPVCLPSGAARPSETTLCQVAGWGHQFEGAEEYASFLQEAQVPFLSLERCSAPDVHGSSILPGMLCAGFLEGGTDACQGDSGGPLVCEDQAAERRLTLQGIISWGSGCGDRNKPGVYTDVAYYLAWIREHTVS
T1 sequence (P00748 20-372 partner limits assumed): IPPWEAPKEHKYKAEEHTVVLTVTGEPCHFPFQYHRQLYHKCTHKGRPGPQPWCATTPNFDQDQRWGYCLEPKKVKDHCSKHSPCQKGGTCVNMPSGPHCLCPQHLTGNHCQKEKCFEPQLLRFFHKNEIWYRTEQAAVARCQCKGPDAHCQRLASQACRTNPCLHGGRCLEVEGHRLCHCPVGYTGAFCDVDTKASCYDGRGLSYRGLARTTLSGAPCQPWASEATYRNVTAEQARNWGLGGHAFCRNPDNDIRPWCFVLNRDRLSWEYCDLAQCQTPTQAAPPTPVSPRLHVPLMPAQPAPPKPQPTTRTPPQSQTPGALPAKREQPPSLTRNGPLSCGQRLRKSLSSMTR
Protocol: Determination of Human Factor XIIa (hFXIIa) inhibition
The Km for the cleavage of the substrate by hFXIIa was determined by standard transformation of the Michaelis-Menten equation, with subsequent inhibition assays performed at substrate Km concentration.

FXa = FXa (Homo sapiens, UniProt P00742); test: Related protease inhibition: FXa, fluorogenic substrate; format: biochemical; details: fluorogenic substrate at Km, 25° C.; H1-H3 = % activity at 40 μM
Protocol: Human serine protease enzyme Plasma Kallikrein, KLK1, FXa, Plasmin, Thrombin and Trypsin were assayed for enzymatic activity using an appropriate fluorogenic substrate at Km concentration, FXIa at fixed substrate concentration of 100 μM and various concentrations of the test compound.

FXa, sequence (P00742 235-488 limits assumed): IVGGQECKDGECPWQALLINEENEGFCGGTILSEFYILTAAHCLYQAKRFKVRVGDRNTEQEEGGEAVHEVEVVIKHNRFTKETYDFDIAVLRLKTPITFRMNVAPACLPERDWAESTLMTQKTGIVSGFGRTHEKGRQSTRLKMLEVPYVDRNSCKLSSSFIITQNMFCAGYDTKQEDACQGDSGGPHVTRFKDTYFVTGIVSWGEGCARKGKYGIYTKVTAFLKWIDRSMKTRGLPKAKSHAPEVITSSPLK
FXa, sequence (P00742 41-179 partner limits assumed): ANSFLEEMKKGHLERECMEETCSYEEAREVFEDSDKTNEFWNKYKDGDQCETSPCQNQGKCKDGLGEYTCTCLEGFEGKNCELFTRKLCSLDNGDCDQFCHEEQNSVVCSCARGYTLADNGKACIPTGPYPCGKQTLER

Row | Compound | IC50 [1] [nM] | IC50 (FXa) [nM]
1 | CN1CCc2ccc(N3CCc4c(C(=O)NC5CCOCC5)nn(-c5cccc(Cl)c5)c4C3=O)cc2C1=O [Example 1203, 1-(3-chlorophenyl)-6-(2-methyl-1-oxo-1,2,3,4-tetrahydroisoquinolin-7-yl)-7-oxo-N-(tetrahydro-2H-pyran-4-yl)-4,5,6,7-tetrahydro-1H-pyrazolo[3,4-c]pyridine-3-carboxamide] | 100 to 300 | > 40000
2 | Cc1nc2c(C(=O)NCC3CC3)nn(-c3cccc(Cl)c3)c2c(=O)n1-c1ccc2c(c1)CN(CCO)CC2 [Example 3003, 1-(3-chlorophenyl)-N-(cyclopropylmethyl)-6-(2-(2-hydroxyethyl)-1,2,3,4-tetrahydroisoquinolin-7-yl)-5-methyl-7-oxo-6,7-dihydro-1H-pyrazolo[4,3-d]pyrimidine-3-carboxamide] | 100 to 300 | > 40000
3 | COc1cc(N2CCc3c(C(=O)NCC4CC4)nn(-c4cccc(Cl)c4)c3C2=O)cc2c1CCN(CCO)C2 [Example 1226, 1-(3-chlorophenyl)-N-(cyclopropylmethyl)-6-(2-(2-hydroxyethyl)-5-methoxy-1,2,3,4-tetrahydroisoquinolin-7-yl)-7-oxo-4,5,6,7-tetrahydro-1H-pyrazolo[3,4-c]pyridine-3-carboxamide] | 100 to 300 | > 40000
4 | Cc1ccncc1CNC(=O)c1nn(-c2cccc(Cl)c2)c2c1CCN(c1ccc3c(c1)C(=O)N(C)[C@@H](CO)CO3)C2=O [Example 1396, (S)-1-(3-chlorophenyl)-6-(3-(hydroxymethyl)-4-methyl-5-oxo-2,3,4,5-tetrahydrobenzo[f][1,4]oxazepin-7-yl)-N-((4-methylpyridin-3-yl)methyl)-7-oxo-4,5,6,7-tetrahydro-1H-pyrazolo[3,4-c]pyridine-3-carboxamide] | 300 to 1000 | > 40000
5 | CN1CCc2ccc(N3CCc4c(C(=O)NC5(CO)CC5)nn(-c5cccc(Cl)c5)c4C3=O)cc2C1=O [Example 1360, 1-(3-chlorophenyl)-N-(1-(hydroxymethyl)cyclopropyl)-6-(2-methyl-1-oxo-1,2,3,4-tetrahydroisoquinolin-7-yl)-7-oxo-4,5,6,7-tetrahydro-1H-pyrazolo[3,4-c]pyridine-3-carboxamide] | 300 to 1000 | 10000 to 40000
6 | Cc1cccnc1CNC(=O)c1nn(-c2cccc(Cl)c2)c2c1CCN(c1ccc3c(c1)C(=O)N(C)CC3)C2=O [Example 1308, 1-(3-chlorophenyl)-6-(2-methyl-1-oxo-1,2,3,4-tetrahydroisoquinolin-7-yl)-N-((3-methylpyridin-2-yl)methyl)-7-oxo-4,5,6,7-tetrahydro-1H-pyrazolo[3,4-c]pyridine-3-carboxamide] | 300 to 1000 | > 40000
7 | CN1CCc2ccc(N3CCc4c(C(=O)NCc5cccnn5)nn(-c5cccc(Cl)c5)c4C3=O)cc2C1=O [Example 1202, 1-(3-chlorophenyl)-6-(2-methyl-1-oxo-1,2,3,4-tetrahydroisoquinolin-7-yl)-7-oxo-N-(pyridazin-3-ylmethyl)-4,5,6,7-tetrahydro-1H-pyrazolo[3,4-c]pyridine-3-carboxamide] | 300 to 1000 | > 40000
8 | O=C(NCc1cocn1)c1nn(-c2cccc(Cl)c2)c2c1CCN(c1ccc3c(c1)CN(CCO)CC3)C2=O [Example 1223, 1-(3-chlorophenyl)-6-(2-(2-hydroxyethyl)-1,2,3,4-tetrahydroisoquinolin-7-yl)-N-(oxazol-4-ylmethyl)-7-oxo-4,5,6,7-tetrahydro-1H-pyrazolo[3,4-c]pyridine-3-carboxamide] | 100 to 300 | 10000 to 40000
9 | O=C(NCC1CC1)c1nn(-c2cccc(Cl)c2)c2c1CCN(c1ccc3c(c1)C(=O)N(CCF)CC3)C2=O [Example 1253, 1-(3-chlorophenyl)-N-(cyclopropylmethyl)-6-(2-(2-fluoroethyl)-1-oxo-1,2,3,4-tetrahydroisoquinolin-7-yl)-7-oxo-4,5,6,7-tetrahydro-1H-pyrazolo[3,4-c]pyridine-3-carboxamide] | 100 to 300 | > 40000
10 | O=C(NCc1ccncc1F)c1nn(-c2cccc(Cl)c2)c2c1CCN(c1ccc3c(c1)CN(CCO)CC3)C2=O [Example 1161, 1-(3-chlorophenyl)-N-((3-fluoropyridin-4-yl)methyl)-6-(2-(2-hydroxyethyl)-1,2,3,4-tetrahydroisoquinolin-7-yl)-7-oxo-4,5,6,7-tetrahydro-1H-pyrazolo[3,4-c]pyridine-3-carboxamide] | 10 to 100 | > 40000
11 | O=C(NCC1CC1)c1nn(-c2cccc(Cl)c2)c2c1CCN(c1ccc3c(c1)CN(CC1CC1)CC3)C2=O [Example 1036, 1-(3-chlorophenyl)-N-(cyclopropylmethyl)-6-(2-(cyclopropylmethyl)-1,2,3,4-tetrahydroisoquinolin-7-yl)-7-oxo-4,5,6,7-tetrahydro-1H-pyrazolo[3,4-c]pyridine-3-carboxamide] | 300 to 1000 | > 40000

Now from value to compound:

Row | IC50 [1] [nM] | IC50 (FXa) [nM] | Compound
12 | 3000 to 10000 | > 40000 | CN(C)C(=O)c1cccc(N2CCc3c(C(=O)NCC4CC4)nn(-c4cccc(Cl)c4)c3C2=O)c1 [Example 1195, 1-(3-Chlorophenyl)-N-(cyclopropylmethyl)-6-[3-(dimethylcarbamoyl)phenyl]-7-oxo-4,5-dihydropyrazolo[3,4-c]pyridine-3-carboxamide]
13 | 100 to 300 | 300 to 1000 | N#Cc1nn(-c2cccc(Cl)c2)c2c(=O)n(-c3ccc4c(c3)CN(CCO)CC4)cnc12 [Example 3013, 1-(3-chlorophenyl)-6-(2-(2-hydroxyethyl)-1,2,3,4-tetrahydroisoquinolin-7-yl)-7-oxo-6,7-dihydro-1H-pyrazolo[4,3-d]pyrimidine-3-carbonitrile]
14 | 10 to 100 | 10000 to 40000 | O=C(NCc1cc(C2CC2)n[nH]1)c1nn(-c2cccc(Cl)c2)c2c1CCN(c1ccc3c(c1)CN(CCO)CC3)C2=O [Example 1127, 1-(3-chlorophenyl)-N-((3-cyclopropyl-1H-pyrazol-5-yl)methyl)-6-(2-(2-hydroxyethyl)-1,2,3,4-tetrahydroisoquinolin-7-yl)-7-oxo-4,5,6,7-tetrahydro-1H-pyrazolo[3,4-c]pyridine-3-carboxamide]
15 | 300 to 1000 | 10000 to 40000 | CN1CCc2ccc(N3CCc4c(C(=O)NCC(=O)O)nn(-c5cccc(Cl)c5)c4C3=O)cc2C1=O [Example 1341, (1-(3-chlorophenyl)-6-(2-methyl-1-oxo-1,2,3,4-tetrahydroisoquinolin-7-yl)-7-oxo-4,5,6,7-tetrahydro-1H-pyrazolo[3,4-c]pyridine-3-carbonyl)glycine]
16 | 300 to 1000 | > 40000 | CN1CCc2ccc(N3CCc4c(C(=O)NCC5CCOC5)nn(-c5cccc(Cl)c5)c4C3=O)cc2C1=O (stereo not shown) [Example 1198, 1-(3-chlorophenyl)-6-(2-methyl-1-oxo-1,2,3,4-tetrahydroisoquinolin-7-yl)-7-oxo-N-((tetrahydrofuran-3-yl)methyl)-4,5,6,7-tetrahydro-1H-pyrazolo[3,4-c]pyridine-3-carboxamide]
17 | 100 to 300 | > 40000 | CN1CCc2ccc(N3CCc4c(C(=O)NCC5CC5)nn(-c5cccc(Cl)c5F)c4C3=O)cc2C1=O [Example 2004, 1-(3-chloro-2-fluorophenyl)-N-(cyclopropylmethyl)-6-(2-methyl-1-oxo-1,2,3,4-tetrahydroisoquinolin-7-yl)-7-oxo-4,5,6,7-tetrahydro-1H-pyrazolo[3,4-c]pyridine-3-carboxamide]
18 | 1000 to 3000 | > 40000 | CN(Cc1ccccc1)C(=O)c1nn(-c2cccc(Cl)c2)c2c1CCN(c1cccc(CN3CCCCC3)c1)C2=O [Example 1004, N-benzyl-1-(3-chlorophenyl)-N-methyl-7-oxo-6-(3-(piperidin-1-ylmethyl)phenyl)-4,5,6,7-tetrahydro-1H-pyrazolo[3,4-c]pyridine-3-carboxamide]
19 | 300 to 1000 | > 40000 | CN1CCc2ccc(N3CCc4c(C(=O)NC5COCC5O)nn(-c5cccc(Cl)c5)c4C3=O)cc2C1=O (stereo not shown) [Example 1179, 1-(3-chlorophenyl)-N-(4-hydroxytetrahydrofuran-3-yl)-6-(2-methyl-1-oxo-1,2,3,4-tetrahydroisoquinolin-7-yl)-7-oxo-4,5,6,7-tetrahydro-1H-pyrazolo[3,4-c]pyridine-3-carboxamide]
20 | 100 to 300 | > 40000 | Cc1nc(CNC(=O)c2nn(-c3cccc(Cl)c3)c3c2CCN(c2ccc4c(c2)C(=O)N(C)CC4)C3=O)n[nH]1 [Example 1247, 1-(3-chlorophenyl)-6-(2-methyl-1-oxo-1,2,3,4-tetrahydroisoquinolin-7-yl)-N-((5-methyl-1H-1,2,4-triazol-3-yl)methyl)-7-oxo-4,5,6,7-tetrahydro-1H-pyrazolo[3,4-c]pyridine-3-carboxamide]
